Data: patent US20160347750A1, “DIHYDROPTERIDINONE DERIVATIVES AND USES THEREOF” (Dana-Farber Cancer Institute, Inc., priority 2014, published 2016)
Read-outs that look alike come from different tables or passages of the source.

Columns and labels:
BRD4.1 [1] = target: T1, BRD4.1 (Homo sapiens, UniProt O60885); details: read-out: BRD4.1 (IC50)
BRD4.1 [2] = target: T1, BRD4.1; details: read-out: ITC (Kd); BRD4.1, ITC at 25 C
MV411 = experiment: Cell line IC50, MV411; type: cell-based
BRD4 [3] = target: T2, BRD4 (Homo sapiens, UniProt O60885); experiment: BRD4 IC50, second listed in Table 2; type: binding
NOMO1 = experiment: Cell line IC50, NOMO1; type: cell-based
PLK1 = PLK1 (Homo sapiens, UniProt P53350); experiment: PLK1 kinase IC50, Table 2; type: biochemical
BRD4 [4] = target: T2, BRD4; experiment: BRD4 IC50, first listed in Table 2; type: binding; details: first BRD4 value listed in the cell
BRDT = BRDT (Homo sapiens, UniProt Q58F21); experiment: BRDT IC50, Table 2; type: binding
Kasumi-1 = experiment: Cell line IC50, Kasumi-1; type: cell-based; details: Kasumi-1 cell line
MOLM-13 = experiment: Cell line IC50, MOLM-13; type: cell-based; details: MOLM-13 cell line
TF-1 = experiment: Cell line IC50, TF-1; type: cell-based; details: TF-1 cell line
797 = experiment: Cellular assay, cell viability by ATPlite, 797 cells; type: cell-based; details: for IC50: read-out: 797 IC50
AURKA = target: T3, AURKA (Homo sapiens, UniProt O14965); experiment: AURKA kinase IC50, Table 2; type: biochemical
T3 sequence (O14965 1-403): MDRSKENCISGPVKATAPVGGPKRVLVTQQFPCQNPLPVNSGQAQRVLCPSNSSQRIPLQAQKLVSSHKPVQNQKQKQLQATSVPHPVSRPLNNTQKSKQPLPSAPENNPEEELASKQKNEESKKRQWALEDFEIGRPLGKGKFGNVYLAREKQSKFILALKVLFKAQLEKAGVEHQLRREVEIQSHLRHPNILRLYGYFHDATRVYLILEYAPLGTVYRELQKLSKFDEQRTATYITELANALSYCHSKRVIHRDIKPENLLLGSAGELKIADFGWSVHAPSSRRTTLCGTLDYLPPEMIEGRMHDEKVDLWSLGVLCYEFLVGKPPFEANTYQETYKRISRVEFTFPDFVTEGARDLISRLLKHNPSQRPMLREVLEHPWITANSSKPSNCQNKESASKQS

HL60 = experiment: cells; details: Homo sapiens, HL-60, read-out: HL60 (EC50, M)
[5] = second BRD4 value listed in the cell, read-out: BRD4 IC50
[6] = Homo sapiens, NOMO-1, NOMO1 cell line
[7] = Homo sapiens, NOMO1 (NOMO-1) cell line

PLK1, sequence (P53350 whole entry): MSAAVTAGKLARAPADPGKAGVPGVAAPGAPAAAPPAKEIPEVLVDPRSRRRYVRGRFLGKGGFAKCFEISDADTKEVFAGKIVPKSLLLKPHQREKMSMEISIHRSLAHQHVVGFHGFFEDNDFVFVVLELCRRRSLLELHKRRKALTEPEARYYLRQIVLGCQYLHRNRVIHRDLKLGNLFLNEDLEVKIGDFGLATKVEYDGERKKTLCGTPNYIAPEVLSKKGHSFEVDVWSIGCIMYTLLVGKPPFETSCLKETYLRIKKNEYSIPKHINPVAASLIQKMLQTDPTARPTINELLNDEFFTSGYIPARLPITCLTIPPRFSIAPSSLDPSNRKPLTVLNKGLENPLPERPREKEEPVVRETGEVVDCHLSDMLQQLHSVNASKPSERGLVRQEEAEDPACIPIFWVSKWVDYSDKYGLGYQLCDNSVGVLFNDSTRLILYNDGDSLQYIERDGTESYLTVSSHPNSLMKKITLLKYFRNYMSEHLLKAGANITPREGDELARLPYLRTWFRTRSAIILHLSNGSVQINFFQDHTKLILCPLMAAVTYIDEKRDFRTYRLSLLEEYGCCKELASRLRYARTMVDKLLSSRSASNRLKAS

SMILES | IC50 (MV411; Homo sapiens, MV4-11) | IC50 (BRD4 [3]; [5]) | IC50 (PLK1) | IC50 (BRD4 [4]) | IC50 (BRDT) | IC50 (Kasumi-1; Homo sapiens) | IC50 (MOLM-13; Homo sapiens) | IC50 (TF-1; Homo sapiens) | IC50 (797; 797 cell line, Table 2) | IC50 (NOMO1; [7]) | other results
CC[C@@H]1C(=O)N(C)c2cnc(Nc3ccc(C(=O)N[C@H]4CC[C@H](N5CCN(CC6CC6)CC5)CC4)cc3OC)nc2N1C(C)C |  |  |  |  |  |  |  |  |  |  | IC50 (BRD4.1 [1]): 1070 nM; Kd (BRD4.1 [2]): 255 nM
CC[C@@H]1C(=O)N(C)c2cnc(Oc3ccc(C(=O)NC4CCN(C)CC4)cc3OC)nc2N1C1CCCC1 | 316 nM | 720 nM | > 10000 nM | 415 nM | 1170 nM | 1290 nM | 1590 nM | 5400 nM | 425 nM |  | IC50 (NOMO1; [6]): 7400 nM
CC[C@@H]1C(=O)N(C)c2cnc(N(C)c3ccc(C(=O)NC4CCN(C)CC4)cc3OC)nc2N1C1CCCC1 | 200 nM | 247 nM | 725 nM | 130 nM | 365 nM | 339 nM | 351 nM | 1580 nM | 342 nM | 771 nM | 
CC[C@@H]1C(=O)N(C)c2cnc(Nc3ccc(C(=O)NC4CCN(C)CC4)cc3OC3CCCC3)nc2N1C1CCCC1 | 71.2 nM | 78 nM | 19 nM | 112 nM | 491 nM | 74.9 nM | 114 nM | 302 nM | 95 nM | 114 nM | 
CC[C@@H]1C(=O)N(CC)c2cnc(Nc3ccc(C(=O)NC4CCN(C)CC4)cc3OC)nc2N1C1CCCC1 | 112 nM | 546 nM |  | 339 nM | 1330 nM | 239 nM | 174 nM | 806 nM | 166 nM | 232 nM | 
CC[C@@H]1C(=O)N(C)c2cnc(Nc3ccc(C(=O)NC4CCN(C)CC4)cc3OC3CCOCC3)nc2N1C1CCCC1 |  | 228 nM | 57.6 nM | 175 nM | 862 nM |  |  |  | 88 nM |  | IC50 (MV411): 74.6 nM; IC50 (NOMO1; NOMO1 (NOMO-1) cell line): 491 nM; IC50 (Kasumi-1): 183 nM; IC50 (MOLM-13): 111 nM; IC50 (TF-1): 1160 nM
CC[C@@H]1C(=O)Nc2cnc(Nc3ccc(C(=O)NC4CCN(C)CC4)cc3OC)nc2N1C1CCCC1 | 302 nM | 6300 nM | 129 nM | 9170 nM | 21100 nM | 1470 nM | 341 nM | 6700 nM | 420 nM |  | IC50 (NOMO1; [6]): 3200 nM
CC[C@@H]1C(=O)N(C)c2cnc(Nc3ccc(C(=O)NC4CCN(C)CC4)cc3)nc2N1C1CCCC1 | 10 nM |  | 4.1 nM | 147 nM | 688 nM |  | 8.5 nM |  |  | 29 nM | IC50 (BRD4 [3]): 231 nM; IC50 (AURKA): 9360 nM; IC50 797: 6 nM
CC[C@@H]1C(=O)N(C)c2cnc(N3CCOc4cc(C(=O)NC5CCN(C)CC5)ccc43)nc2N1C1CCCC1 | 976 nM | 832 nM | 1700 nM | 1620 nM | 5370 nM |  | 3490 nM |  | 1940 nM | 5420 nM | 
CC[C@@H]1C(=O)N(C)c2cnc(N3CCc4cc(C(=O)NC5CCN(C)CC5)ccc43)nc2N1C1CCCC1 | 86 nM | 43 nM | 20 nM | 53 nM | 213 nM |  | 137 nM |  | 64 nM | 247 nM | 
CC[C@@H]1C(=O)N(C)c2ccc(Nc3ccc(C(=O)NC4CCN(C)CC4)cc3OC)nc2N1C1CCCC1 | 404 nM | 188 nM | 1870 nM | 263 nM | 859 nM |  | 851 nM |  | 701 nM | 1830 nM | 
CC[C@@H]1C(=O)N(C)c2ccc(N3CCc4cc(C(=O)NC5CCN(C)CC5)ccc43)nc2N1C1CCCC1 | 357 nM | 172 nM | > 10000 nM | 394 nM | 1050 nM |  | 828 nM |  | 937 nM | 1730 nM | 
C[C@@H]1C(=O)N(C)c2ccc(N3CCc4cc(C(=O)NC5CCN(C)CC5)ccc43)nc2N1C1CCCC1 | 135 nM | 78 nM | > 10000 nM | 160 nM | 469 nM |  | 333 nM |  | 227 nM | 728 nM | 
COc1cc(C(=O)NC2CCN(C)CC2)ccc1Nc1ncc2c(n1)N(C1CCCC1)[C@H](CC(C)C)C(=O)N2C | 550 nM | 18800 nM | 78 nM | 13500 nM | 24500 nM |  | 461 nM |  | 292 nM | 775 nM | 
COc1cc(C(=O)NC2CCN(C)CC2)ccc1Nc1ccc2c(n1)N(C1CCCC1)[C@H](C)C(=O)N2C | 21 nM | 100 nM | > 10000 nM | 92 nM | 249 nM |  | 218 nM |  | 181 nM | 529 nM | 
Cc1sc2c(c1C)C(c1ccc(Cl)cc1)=N[C@@H](CC(=O)OC(C)(C)C)c1nnc(C)n1-2 [JQ1, reference compound] |  |  |  |  |  |  |  |  | 92 nM |  | IC50 (MV411): 65.6 nM; IC50 (NOMO1; NOMO1 (NOMO-1) cell line): 172 nM; IC50 (Kasumi-1): 48.8 nM; IC50 (MOLM-13): 89.2 nM; IC50 (TF-1): 109 nM
CC[C@@H]1C(=O)N(C)c2cnc(Nc3ccc(C(=O)NC4CCN(C)CC4)cc3OC)nc2N1C1CCCC1 [drawing 199] |  |  |  |  |  |  |  |  |  |  | EC50 (HL60): 3.65e-08 M; EC50 (797; read-out: 797 (EC50, M)): 1.07e-08 M
CC[C@@H]1C(=O)N(C)c2cnc(Nc3ccc(C(=O)NC4CCN(C)CC4)cc3OC)nc2N1C1CCCC1 [drawing 214] | 5.4 nM |  |  |  |  | 9.9 nM | 8.1 nM | 772 nM |  | 11.9 nM | IC50 797: 5 nM
C[C@@H](Oc1cc(-n2cnc3ccc(CN4CCN(C)CC4)cc32)sc1C(N)=O)c1ccccc1C(F)(F)F [reference compound] | 7.1 nM |  |  | > 50000 nM | > 50000 nM | 7.8 nM |  |  | 8 nM |  | TF-1 IC50 (TF-1; result in words): poor convergence
